The molecules below were run on P388 (assay: Antitumor activity against Mus musculus (mouse) P388 cells xenografted in Mus musculus (mouse) assessed as increase in life span at 100 mg/kg relative to control).
Type: functional
`CN(C)CCNc1ccc2nnn3c4ccccc4c(=O)c1c23` gave an Activity of 77%. In the case of `Cc1ccc2c(c1)c(=O)c1c(NCCCN(C)C)ccc3nnn2c31`, the Activity is reported as 18%.

What follows are molecules tested on P388 (assay: Antitumor activity against Mus musculus (mouse) P388 cells xenografted in Mus musculus (mouse) assessed as increase in life span relative to control).
Type: functional
Design: concentration or dose not given beside the values
`CCN(CC)CCNc1ccc2ncn3c4ccccc4c(=O)c1c23` showed an Activity of 55%. `CN(C)CCNc1ccc2ncn3c4ccc(O)cc4c(=O)c1c23` showed an Activity of 110%. Work on `CCN(CC)CCNc1ccc2ncn3c4ccc(OC)cc4c(=O)c1c23` yielded an Activity of 96%. `CN(C)CCCNc1ccc2ncn3c4ccc(O)cc4c(=O)c1c23` showed an Activity of 120%. With `CCN(CC)CCNc1ccc2nc(C)n3c4ccc(O)cc4c(=O)c1c23` the Activity was 185%. Work on `CN(C)CCCNc1ccc2ncn3c4ccccc4c(=O)c1c23` yielded an Activity of 25%. `CN(C)CCCCCNc1ccc2ncn3c4ccccc4c(=O)c1c23` was tested, and the Activity was 10%. `CN(C)CCNc1ccc2ncn3c4ccccc4c(=O)c1c23` showed an Activity of 90%. `CCN(CC)CCCCCNc1ccc2ncn3c4ccc(C)cc4c(=O)c1c23` gave an Activity of 20%. `CCNCCNc1ccc2nnn3c4ccc(O)cc4c(=O)c1c23` gave an Activity of 78%. Molecule `CN(C)CCNc1ccc2nnn3c4ccc(C(C)(C)C)cc4c(=O)c1c23` has an Activity of 0%. In the case of `CN(C)CCCCCNc1ccc2ncn3c4ccc(O)cc4c(=O)c1c23`, the Activity is reported as 85%. `CCN(CC)CCNc1ccc2ncn3c4cc(O)ccc4c(=O)c1c23` was tested, and the Activity was 27%. `CCN(CC)CCNc1ccc2ncn3c4ccc(C(C)(C)C)cc4c(=O)c1c23` showed an Activity of 0%. Molecule `CCN(CC)CCNc1ccc2ncn3c4ccc(O)cc4c(=O)c1c23` [C-1311] has an Activity of 93%.

Each molecule was assayed on P388 (assay: Antitumor activity against Mus musculus (mouse) P388 cells xenografted in Mus musculus (mouse) assessed as increase in life span at 25 mg/kg relative to control).
Type: functional
In the case of `CN(C)CCN(C)c1ccc2nnn3c4ccc(O)cc4c(=O)c1c23`, the Activity is reported as 10%. `CN(C)CCCNc1ccc2nnn3c4ccc(O)cc4c(=O)c1c23` gave an Activity of 165%. Work on `CN(C)CCNc1ccc2nnn3c4ccc(O)cc4c(=O)c1c23` yielded an Activity of 102%.
